In patent EP0489933A1, “BILE ALCOHOL AND DRUG CONTAINING THE SAME AS ACTIVE INGREDIENT” (TSUMURA CO., LTD., priority 1990, dated 1992):

Key:
male mice of ddY line = experiment: Survival time under hypoxia (aeration with 96% nitrogen and 4% oxygen); format: in vivo; conditions: 50 mg/kg, i.p., 60 minutes before aeration with 96% nitrogen and 4% oxygen; time to respiratory arrest
Experimental: In this experiment, 5 to 6-week-old male mice of ddY line (10 individuals per one group) were used after fasting treatment for 24 hours.
Each compound obtained in the present invention was administered intraperitoneally. After 60 minutes of the administration, each mouse was transferred separately into a transparent vessel (capacity, 1,000 ml) equipped with an air exit, and the vessel was aerated with a mixed gas consisting of 96% nitrogen and 4% oxygen at an aeration rate of 5 ℓ/min.
All tested mice died within 180 seconds after the commencement of the gas mixture aeration. Terminal respiration was observed several times prior to the respiratory arrest. Survival time of the control group was roughly in the range of from 96 to 111 seconds.

male rats of SD line = experiment: High cholesterol feed: blood viscosity, serum total cholesterol, triglyceride, GOT; format: in vivo; conditions: 100 mg/kg/day, p.o., 4 days
Experimental: In this experiment, 5-week-old male rats of SD line (5 individuals per one group) were used after rearing them for 1 week using normal feed, and each compound of the present invention (100 mg/kg) was administered orally once a day for 4 days. Simultaneously with the commencement of the administration, the normal feed was replaced by a high cholesterol feed. After completion of the administration, they were subjected to fasting treatment for 24 hours. Thereafter, each rat was subjected to ventrotomy under anesthesia with Nembutal® (Dainabot Co., Ltd.; 50 mg/kg, i.p.) to collect blood from abdominal aorta, and the collected blood sample was checked for its blood viscosity using a viscometer (Biolyzer, Tokyo Keiki Co., Ltd.). At the same time, total cholesterol (Wako Pure Chemical Industries, Ltd.; Cholesterol E-test wako), triglyceride (Wako Pure Chemical Industries, Ltd.; Triglyceride G-test wako) and GOT (Wako Pure Chemical Industries, Ltd.; GOT-UV test-wako) in serum samples were measured.

red blood cells = experiment: Inhibition of thermal hemolysis of red blood cells; format: cell-based, donryu rats; conditions: Rattus norvegicus, Erythrocyte, 20 min, 53°C for 20 minutes, read-out: Hemolysis Inhibition Ratio (%) against Control; for inhibition at 10 µM: 0.01 mM; for inhibition at 50 µM: 0.05 mM; for inhibition at 100 µM: 0.1 mM; for inhibition at 200 µM: 0.2 mM; for inhibition at 500 µM: 0.5 mM
Experimental: Blood was collected from donryu rats of 150 to 200 g in body weight and centrifuged at 1,500 rpm for 5 minutes to obtain red blood cells. The red blood cells thus collected were diluted with 0.15 M phosphate buffer (pH 7.4) to prepare a 5% red blood cell suspension. A 3.8 ml portion of the thus prepared suspension was mixed with 0.2 ml solution of each compound of the present invention which has been adjusted to each level of the concentrations as shown in the following table, and the resulting mixture was shaken thoroughly and incubated at 53°C for 20 minutes. Thereafter, the thus incubated mixture was cooled rapidly with tap water and centrifuged at 3,000 rpm for 15 minutes, and absorbance at 540 nm of the resulting supernatant fluid was measured using a spectrophotometer (Hitachi: Type 200-20). Inhibition rate (%) of red blood cell hemolysis at each concentration of the compound was calculated based on the absorbance, with the results shown in Table 8.

erythrocytes = experiment: Erythrocyte deformability (filtration through 5 µm filter) after oral administration; format: in vivo, male rats of Wistar line; conditions: 30 mg/kg, p.o.; blood collected 90 minutes after administration; number of filtered erythrocytes
Experimental: In this experiment, 9-week-old male rats of Wistar line (5 to 6 individuals per one group) were used after rearing them for 1 week with normal feed. After 24 hours of fasting, each test drug was administered orally and, 90 minutes thereafter, blood sample was collected from lower abdominal vena cava of each rat under anesthesia with Nembutal® (1 ml/kg, i.p.). Blood samples obtained in this way were checked for their blood clotting time and erythrocyte deformability.
Measuring procedures are as follows.
Erythrocyte deformability ... The collected blood is extruded from a syringe with a constant flow of He in a holder equipped with a filter (5 µm). Weight of blood and the number of erythrocytes filtered during a fixed time are measured and the deformability is expressed based on the number of filtered erythrocytes. The results of these measurements are shown respectively in Tables 11 and 12.

male SD rats = experiment: Thrombus formation in abdominal vena cava; format: in vivo; conditions: 30 mg/kg, p.o.; dry weight of thrombus
Experimental: Each of male SD rats of 130 to 210 g in body weight was anesthetized with Nembutal® (50 mg/kg, i.p.) and subjected to median incision ventrotomy to release about a 2 cm portion of abdominal vena cava below the renal vein. Blood flow of the thus released vena cava was temporarily stopped for 5 minutes with 8 hemostatic clips. After recirculating blood for 5 minutes by removing the hemostatic clips, […] was ligated at a position just below the renal vein and the median-incised part was sutured. Two hours after the ligature, the thus treated rat was again subjected to ventrotomy to excise abdominal vena cava. The thus excised blood vessel was cut open on a filter paper which had been moistened with physiological saline, in order to take out thrombus. The thrombus thus obtained was washed with physiological saline to remove adhered blood and the like substances and then dried at 80°C for 12 hours or longer to measure its dry weight. In this instance, each drug to be tested was orally administered 90 minutes before the clipping to examine its effect by single administration on the formation of thrombus. Separately from this, each test drug was administered to 6-week-old male SD rat continuously for 7 days, thrombus was prepared in the eighth day in the same manner as described above and dry weight of the thrombus was measured, in order to examine effect of the continuous 7 day administration on the thrombus formation.

[1] = system: platelet rich plasma (PRP); experiment: Platelet aggregation in platelet rich plasma after oral administration; format: in vivo, male rat; conditions: 30 mg/kg, p.o., blood 90 minutes after administration
Experimental: Each drug to be tested was orally administered to each male rat which has been subjected to fasting treatment for 18 to 24 hours. After 90 minutes of the administration, median incision ventrotomy was carried out under ether anesthesia to collect 9 volumes of blood using a syringe filled with 1 volume of 3.8% sodium citrate solution (3.8% sodium citrate solution:blood = 1:9). After thorough mixing, the thus prepared mixture was centrifuged at 800 rpm for 10 minutes at room temperature to collect the resulting supernatant fluid as platelet rich plasma (PRP). The residual portion was centrifuged at 3,000 rpm for 15 minutes at room temperature to collect the resulting supernatant fluid as platelet poor plasma (PPP). The PRP was diluted with the PPP to adjust the number of platelets to 3×10⁵ ± 2×10⁴ cells/µl. A 450 µl portion of the thus diluted PRP was incubated at 37°C for 3 minutes and then mixed with 50 µl of 1×10⁻⁵ M of ADP or 1×10⁻⁵ g/ml of collagen. Thereafter, platelet aggregation test of the mixture was carried out using an aggregometer by measuring transmittance at 940 nm.

C[C@H](CCCC(C)(O)CO)[C@H]1CC[C@H]2[C@@H]3[C@H](O)C[C@@H]4C[C@H](O)CC[C@]4(C)[C@H]3C[C@H](O)[C@]12C (stereo partly drawn) [Illustrative Example 4, 5β-cholestane-3α,7α,12α,25,26-pentol]
Survival Time ±S.E. (male mice of ddY line): 118.0 ± 5.11 s
GOT ±S.E. (male rats of SD line): 116 ± 31 IU/ℓ
Total Cholesterol ±S.E. (male rats of SD line): 450 ± 59 mg/dL
Triglyceride ±S.E. (male rats of SD line): 108 ± 38 mg/dL
inhibition at 10 µM (red blood cells): 27%
inhibition at 50 µM (red blood cells): 25%
inhibition at 100 µM (red blood cells): 41%
inhibition at 200 µM (red blood cells): 42%
inhibition at 500 µM (red blood cells): 49%
Erythrocyte Deformation: Erythrocyte counts ±S.E. (erythrocytes): 3.93 ± 0.38 × 10⁷
Antithrombotic Effect: Thrombus weight ±S.E. (male SD rats): 14.1 ± 2.11 mg
Platelet Aggregation Ratio ±S.E. ([1]; ADP (1×10⁻⁵ M)): 42.5 ± 1.65%
Platelet Aggregation Ratio ±S.E. ([1]; Collagen (1×10⁻⁵ g/ml)): 48.7 ± 2.53%

CC(C)C(O)CC[C@@H](C)[C@H]1CC[C@H]2[C@@H]3[C@H](O)C[C@@H]4C[C@H](O)CC[C@]4(C)[C@H]3C[C@H](O)[C@]12C (stereo partly drawn) [Illustrative Example 5, 3α,7α,12α,24-tetrahydroxy-5β-cholestane]
Survival Time ±S.E. (male mice of ddY line): 110.5 ± 6.71 s
GOT ±S.E. (male rats of SD line): 131 ± 21 IU/ℓ
Total Cholesterol ±S.E. (male rats of SD line): 453 ± 49 mg/dL
Triglyceride ±S.E. (male rats of SD line): 110 ± 29 mg/dL
inhibition at 10 µM (red blood cells): 25%
inhibition at 50 µM (red blood cells): 21%
inhibition at 100 µM (red blood cells): 33%
inhibition at 200 µM (red blood cells): 51%
inhibition at 500 µM (red blood cells): 58%
Erythrocyte Deformation: Erythrocyte counts ±S.E. (erythrocytes): 3.51 ± 0.65 × 10⁷
Antithrombotic Effect: Thrombus weight ±S.E. (male SD rats): 13.8 ± 3.77 mg
Platelet Aggregation Ratio ±S.E. ([1]; ADP (1×10⁻⁵ M)): 44.8 ± 3.62%
Platelet Aggregation Ratio ±S.E. ([1]; Collagen (1×10⁻⁵ g/ml)): 49.9 ± 4.85%

C[C@H](CCCO)[C@H]1CC[C@H]2[C@@H]3[C@H](O)C[C@@H]4C[C@H](O)CC[C@]4(C)[C@H]3C[C@H](O)[C@]12C [Illustrative Example 6, 3α,7α,12α,24-tetrahydroxy-5β-cholan]
Survival Time ±S.E. (male mice of ddY line): 115.4 ± 2.24 s
GOT ±S.E. (male rats of SD line): 136 ± 10 IU/ℓ
Total Cholesterol ±S.E. (male rats of SD line): 451 ± 50 mg/dL
Triglyceride ±S.E. (male rats of SD line): 107 ± 21 mg/dL
inhibition at 10 µM (red blood cells): 24%
inhibition at 50 µM (red blood cells): 22%
inhibition at 100 µM (red blood cells): 38%
inhibition at 200 µM (red blood cells): 51%
inhibition at 500 µM (red blood cells): 59%
Erythrocyte Deformation: Erythrocyte counts ±S.E. (erythrocytes): 3.71 ± 0.48 × 10⁷
Antithrombotic Effect: Thrombus weight ±S.E. (male SD rats): 12.4 ± 2.39 mg
Platelet Aggregation Ratio ±S.E. ([1]; ADP (1×10⁻⁵ M)): 43.5 ± 3.26%
Platelet Aggregation Ratio ±S.E. ([1]; Collagen (1×10⁻⁵ g/ml)): 47.7 ± 2.58%
